Experiment [1] relates to HDAC isoforms. The experiment is described as follows: HDAC inhibition profiled over several HDAC isoforms (experimental). The experiment is classed as biochemical, human. The following applies: range of pIC50 over the profiled HDAC isoforms.
Experiment [2] deals with HDAC4 (Homo sapiens, UniProt P56524). The following applies: cited from earlier work.
The target in experiment [3] is HDAC2 (Homo sapiens, UniProt Q92769). The note with it: cited from earlier work.
The target of experiment [4] is T1, HDAC10 (Homo sapiens, UniProt Q969S8).
T1 sequence (Q969S8 1-669): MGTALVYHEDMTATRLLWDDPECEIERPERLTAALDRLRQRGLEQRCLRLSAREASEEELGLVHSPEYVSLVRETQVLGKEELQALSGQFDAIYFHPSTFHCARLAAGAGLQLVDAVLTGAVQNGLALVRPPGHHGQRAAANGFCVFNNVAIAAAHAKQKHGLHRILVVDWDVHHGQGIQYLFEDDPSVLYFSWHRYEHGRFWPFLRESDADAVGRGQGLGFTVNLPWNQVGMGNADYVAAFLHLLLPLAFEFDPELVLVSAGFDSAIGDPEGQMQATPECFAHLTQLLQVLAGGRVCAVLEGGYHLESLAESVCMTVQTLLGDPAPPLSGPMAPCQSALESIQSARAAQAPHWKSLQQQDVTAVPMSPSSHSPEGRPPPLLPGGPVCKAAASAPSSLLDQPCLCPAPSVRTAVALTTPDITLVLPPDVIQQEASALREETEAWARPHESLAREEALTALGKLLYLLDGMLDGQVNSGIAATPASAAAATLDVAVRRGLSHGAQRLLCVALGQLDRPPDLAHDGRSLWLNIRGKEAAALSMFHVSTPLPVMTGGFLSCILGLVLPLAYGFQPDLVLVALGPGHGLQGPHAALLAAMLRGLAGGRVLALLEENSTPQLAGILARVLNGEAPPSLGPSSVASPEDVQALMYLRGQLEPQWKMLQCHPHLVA
The following applies: cited from earlier work.

In experiment [5] the target is HDAC3 (Homo sapiens, UniProt O15379). The following applies: cited from earlier work.
Experiment [6] has as its target T2, HDAC8 (Homo sapiens, UniProt Q9BY41).
T2 sequence (Q9BY41 1-377): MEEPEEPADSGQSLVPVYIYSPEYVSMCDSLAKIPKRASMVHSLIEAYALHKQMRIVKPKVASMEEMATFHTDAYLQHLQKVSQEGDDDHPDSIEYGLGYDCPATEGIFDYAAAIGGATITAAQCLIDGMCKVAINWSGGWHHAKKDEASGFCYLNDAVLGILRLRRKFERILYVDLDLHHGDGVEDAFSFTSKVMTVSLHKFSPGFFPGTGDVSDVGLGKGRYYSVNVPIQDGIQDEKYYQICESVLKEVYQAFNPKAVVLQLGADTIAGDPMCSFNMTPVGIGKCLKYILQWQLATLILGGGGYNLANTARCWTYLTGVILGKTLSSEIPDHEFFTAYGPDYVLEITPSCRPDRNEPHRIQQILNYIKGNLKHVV
The following applies: cited from earlier work.

For experiment [7], the target named is T3, HDAC6 (Homo sapiens, UniProt Q9UBN7).
T3 sequence (Q9UBN7 1-1215): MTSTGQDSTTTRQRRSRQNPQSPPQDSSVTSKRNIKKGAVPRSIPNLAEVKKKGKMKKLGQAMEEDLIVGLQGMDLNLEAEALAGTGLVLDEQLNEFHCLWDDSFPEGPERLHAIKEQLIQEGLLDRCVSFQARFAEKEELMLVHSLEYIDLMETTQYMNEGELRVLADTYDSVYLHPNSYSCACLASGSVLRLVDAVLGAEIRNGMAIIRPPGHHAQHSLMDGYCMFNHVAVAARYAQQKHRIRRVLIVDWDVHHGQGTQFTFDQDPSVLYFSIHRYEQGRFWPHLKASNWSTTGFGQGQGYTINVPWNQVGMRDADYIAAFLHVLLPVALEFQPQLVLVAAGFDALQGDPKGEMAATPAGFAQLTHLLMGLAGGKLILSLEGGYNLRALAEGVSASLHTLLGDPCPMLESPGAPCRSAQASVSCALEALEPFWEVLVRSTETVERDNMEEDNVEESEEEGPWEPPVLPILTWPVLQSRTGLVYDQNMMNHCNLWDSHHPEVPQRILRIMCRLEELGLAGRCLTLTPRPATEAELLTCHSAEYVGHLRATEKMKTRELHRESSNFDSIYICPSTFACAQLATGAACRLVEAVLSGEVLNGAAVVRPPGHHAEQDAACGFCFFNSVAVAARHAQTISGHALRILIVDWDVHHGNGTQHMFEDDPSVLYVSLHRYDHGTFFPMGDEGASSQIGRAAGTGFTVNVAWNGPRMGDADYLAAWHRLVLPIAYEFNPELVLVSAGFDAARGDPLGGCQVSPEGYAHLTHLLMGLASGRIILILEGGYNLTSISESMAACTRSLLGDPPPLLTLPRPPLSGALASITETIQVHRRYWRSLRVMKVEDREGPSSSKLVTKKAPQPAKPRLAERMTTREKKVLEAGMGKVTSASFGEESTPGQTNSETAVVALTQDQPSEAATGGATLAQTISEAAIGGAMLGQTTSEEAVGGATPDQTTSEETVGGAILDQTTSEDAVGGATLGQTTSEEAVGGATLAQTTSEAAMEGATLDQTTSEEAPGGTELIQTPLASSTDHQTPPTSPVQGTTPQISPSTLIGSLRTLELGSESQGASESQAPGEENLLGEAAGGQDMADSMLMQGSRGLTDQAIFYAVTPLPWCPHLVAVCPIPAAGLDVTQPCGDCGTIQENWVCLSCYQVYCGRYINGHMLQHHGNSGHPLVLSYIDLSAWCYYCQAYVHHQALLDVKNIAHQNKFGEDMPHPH
The note with it: cited from earlier work; for pIC50exp: HDAC6 experimental activity assigned; for pIC50: training set composition.

In experiment [8] the target is HDAC5 (Homo sapiens, UniProt Q9UQL6). The following applies: against HDAC5; cited from earlier work.
Setting [9] is: training set, read-out: HDACs inhibitory activities IC50.
The mark [10] stands for this setting: experimental value of modeled complex.

Read-outs that look alike come from different tables or passages of the source.

Data on one compound can be found in US20160378912A1, “STRUCTURE-BASED MODELING AND TARGET-SELECTIVITY PREDICTION” (EPIGENETX, LLC, priority 2013, published 2016).

Sequence of HDAC3 (O15379 whole entry): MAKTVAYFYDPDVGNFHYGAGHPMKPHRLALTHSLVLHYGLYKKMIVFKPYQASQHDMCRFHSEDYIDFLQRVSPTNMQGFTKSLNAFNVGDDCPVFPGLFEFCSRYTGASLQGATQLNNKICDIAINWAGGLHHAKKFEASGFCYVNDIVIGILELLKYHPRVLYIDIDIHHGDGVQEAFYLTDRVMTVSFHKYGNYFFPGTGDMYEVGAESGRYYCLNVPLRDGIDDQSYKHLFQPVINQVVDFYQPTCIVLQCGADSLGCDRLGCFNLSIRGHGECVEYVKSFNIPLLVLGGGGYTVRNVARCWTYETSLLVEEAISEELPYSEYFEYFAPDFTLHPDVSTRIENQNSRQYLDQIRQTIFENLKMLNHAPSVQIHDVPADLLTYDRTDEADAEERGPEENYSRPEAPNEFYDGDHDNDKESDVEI
Sequence of HDAC3 (Q9Y618 395-489 partner limits assumed): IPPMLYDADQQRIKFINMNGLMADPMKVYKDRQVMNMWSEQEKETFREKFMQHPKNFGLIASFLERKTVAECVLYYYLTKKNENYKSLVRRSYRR
Sequence of HDAC4 (P56524 whole entry): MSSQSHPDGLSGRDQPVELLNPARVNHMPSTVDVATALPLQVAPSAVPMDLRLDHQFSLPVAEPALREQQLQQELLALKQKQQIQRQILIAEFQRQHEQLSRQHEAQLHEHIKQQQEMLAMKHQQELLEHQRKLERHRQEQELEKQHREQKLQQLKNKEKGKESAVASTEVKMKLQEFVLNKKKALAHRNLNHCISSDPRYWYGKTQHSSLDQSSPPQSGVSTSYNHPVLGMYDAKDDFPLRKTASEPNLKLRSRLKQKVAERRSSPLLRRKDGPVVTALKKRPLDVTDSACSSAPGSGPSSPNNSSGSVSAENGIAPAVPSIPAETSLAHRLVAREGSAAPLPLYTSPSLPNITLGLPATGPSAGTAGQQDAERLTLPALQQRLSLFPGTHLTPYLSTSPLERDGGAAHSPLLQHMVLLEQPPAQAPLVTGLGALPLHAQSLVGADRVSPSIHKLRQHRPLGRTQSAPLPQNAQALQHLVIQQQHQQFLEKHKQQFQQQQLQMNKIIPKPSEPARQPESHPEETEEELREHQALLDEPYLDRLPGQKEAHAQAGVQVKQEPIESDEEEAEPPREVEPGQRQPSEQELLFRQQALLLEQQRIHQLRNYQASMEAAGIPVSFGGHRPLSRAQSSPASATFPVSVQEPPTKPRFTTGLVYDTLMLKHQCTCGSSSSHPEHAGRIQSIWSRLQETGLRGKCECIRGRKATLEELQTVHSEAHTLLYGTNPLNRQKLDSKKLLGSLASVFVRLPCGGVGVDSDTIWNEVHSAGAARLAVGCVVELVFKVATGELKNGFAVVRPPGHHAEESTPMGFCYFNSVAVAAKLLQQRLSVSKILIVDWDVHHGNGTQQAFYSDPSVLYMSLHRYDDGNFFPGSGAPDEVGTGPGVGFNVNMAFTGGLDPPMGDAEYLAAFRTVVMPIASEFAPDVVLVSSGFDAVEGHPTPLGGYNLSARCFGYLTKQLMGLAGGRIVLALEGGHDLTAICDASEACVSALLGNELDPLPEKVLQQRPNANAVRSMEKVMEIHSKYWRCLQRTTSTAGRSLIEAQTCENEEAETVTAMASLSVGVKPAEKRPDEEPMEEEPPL
Sequence of HDAC2 (Q92769 whole entry): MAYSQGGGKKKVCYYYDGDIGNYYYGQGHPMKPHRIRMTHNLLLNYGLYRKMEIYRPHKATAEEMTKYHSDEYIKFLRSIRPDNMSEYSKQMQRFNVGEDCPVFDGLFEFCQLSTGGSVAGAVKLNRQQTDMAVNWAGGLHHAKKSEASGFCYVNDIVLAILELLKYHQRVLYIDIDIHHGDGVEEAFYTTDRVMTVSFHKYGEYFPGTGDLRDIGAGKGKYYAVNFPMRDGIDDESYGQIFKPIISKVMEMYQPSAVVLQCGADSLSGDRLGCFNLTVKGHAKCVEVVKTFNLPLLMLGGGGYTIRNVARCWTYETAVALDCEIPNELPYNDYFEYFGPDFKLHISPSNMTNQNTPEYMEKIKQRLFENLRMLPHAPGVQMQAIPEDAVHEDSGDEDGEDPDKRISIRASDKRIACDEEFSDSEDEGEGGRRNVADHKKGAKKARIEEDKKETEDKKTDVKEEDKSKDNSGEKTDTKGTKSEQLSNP
Sequence of HDAC5 (Q9UQL6 whole entry): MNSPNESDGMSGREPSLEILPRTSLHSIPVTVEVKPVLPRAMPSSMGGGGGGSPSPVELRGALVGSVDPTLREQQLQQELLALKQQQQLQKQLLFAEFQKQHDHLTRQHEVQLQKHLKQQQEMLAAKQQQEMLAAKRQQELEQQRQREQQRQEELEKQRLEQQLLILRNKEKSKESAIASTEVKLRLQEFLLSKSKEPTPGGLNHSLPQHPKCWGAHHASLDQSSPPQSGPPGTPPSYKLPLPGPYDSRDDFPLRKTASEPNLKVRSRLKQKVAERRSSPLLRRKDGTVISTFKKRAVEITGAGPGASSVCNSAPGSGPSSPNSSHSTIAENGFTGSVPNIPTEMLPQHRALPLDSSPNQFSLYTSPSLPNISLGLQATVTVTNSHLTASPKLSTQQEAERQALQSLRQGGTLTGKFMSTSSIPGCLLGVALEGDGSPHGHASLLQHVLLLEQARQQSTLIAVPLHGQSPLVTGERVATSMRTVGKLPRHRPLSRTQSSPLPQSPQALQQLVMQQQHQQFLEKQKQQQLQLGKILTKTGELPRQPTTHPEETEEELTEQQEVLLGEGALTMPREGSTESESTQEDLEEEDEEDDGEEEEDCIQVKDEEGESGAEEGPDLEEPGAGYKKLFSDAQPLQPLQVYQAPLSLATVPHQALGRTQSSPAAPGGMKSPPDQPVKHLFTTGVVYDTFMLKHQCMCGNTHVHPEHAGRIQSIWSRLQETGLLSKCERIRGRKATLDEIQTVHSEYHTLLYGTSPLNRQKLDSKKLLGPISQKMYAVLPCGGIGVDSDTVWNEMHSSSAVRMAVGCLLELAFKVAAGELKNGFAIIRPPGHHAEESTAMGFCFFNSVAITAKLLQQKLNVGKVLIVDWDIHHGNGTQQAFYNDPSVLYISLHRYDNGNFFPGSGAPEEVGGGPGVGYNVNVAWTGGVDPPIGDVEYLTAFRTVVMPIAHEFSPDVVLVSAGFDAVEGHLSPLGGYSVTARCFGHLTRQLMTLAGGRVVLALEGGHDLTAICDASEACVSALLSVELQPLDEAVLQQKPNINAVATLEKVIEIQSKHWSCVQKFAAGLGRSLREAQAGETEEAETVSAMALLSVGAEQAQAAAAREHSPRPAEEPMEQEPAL

In general, pIC50 refers to −log10 of the IC50, conventionally taken in molar units. As a reminder, the IC50 is the midpoint of a concentration-inhibition curve. Turning to `CCCC(=O)O` [NABUT, Butyrate], the “Bioactivity range (ΔpIC50) DpIC50” value in experiment [1] was found to be 1.95. Moreover, the negative logarithm of the IC50 (pIC50) is on record as 4.52 in experiment [2] (training set composition); 4.54 in experiment [3] (training set composition); 3.54 in experiment [4] (training set composition); 4.65 in experiment [5] (training set composition); 4.07 in experiment [6] (training set composition); 3.00 in experiment [7] (HDAC6-1). Further, the pIC50 in experiment [7] (HDAC6-2) is given as 3.00. Further, the IC50 in experiment [2] (setting [9]) is 30 µM; in experiment [3] (setting [9]) it was 28.9 µM; in experiment [4] (setting [9]), 292 µM; in experiment [5] (setting [9]), 22.5 µM; in experiment [6] (setting [9]), 85.6 µM; in experiment [7] (HDAC6, training set, read-out: HDACs inhibitory activities IC50), 1000 µM. For the same compound, the pIC50exp is 3.535 in experiment [4] (setting [10]), 4.648 in experiment [5] (setting [10]), 3 in experiment [7] (HDAC6-1 (histone catalytic domain)) and 3 in experiment [7] (HDAC6-2 (tubulin catalytic domain)). Also, the “pIC50 (lower end of training set activity range)” value in experiment [8] is given as 2.7.
